# Test results as given in patent US20040077615A1, “Novel formulations for administering therapeutic lipophilic molecules” (priority 2000, published 2004).
# Details: subcutaneous 5 mg in sesame oil vs rectal 15 mg (Diastat); plasma over 8 hours; FIG. 1
smiles,measurement,value
CN1C(=O)CN=C(c2ccccc2)c2cc(Cl)ccc21 [diazepam],"rise of levels in blood, subcutaneous delivery compared with rectal delivery",rise more quickly than via rectal delivery
